Source: patent publication US9216999B2, “Substituted pyrrolo[2,3-h][1,6]naphthyridines and compositions thereof as JAK inhibitors” (priority 2011, dated 2015)
Counter-ions that a name gives are not always drawn. Like-named read-outs stand apart in the source and are kept apart here.

Key:
Assay type in all cases: biochemical
JAK2 = JAK2 (Homo sapiens (Human), UniProt O60674); assay: Enzyme assay (Assay Example^a 1), JAK2
JAK1 = JAK1 (Homo sapiens (Human), UniProt P23458); assay: Enzyme assay (Assay Example^a 1), JAK1; details: ATP 100 μM
Tyk2 = Tyk2 (Homo sapiens (Human), UniProt P29597); assay: Enzyme assay (Assay Example^a 1), Tyk2; details: ATP 100 μM
JAK3 = JAK3 (Homo sapiens (Human), UniProt P52333); assay: Enzyme assay (Assay Example^a 1), JAK3; details: ATP 100 μM
JAK3, sequence (P52333 whole entry): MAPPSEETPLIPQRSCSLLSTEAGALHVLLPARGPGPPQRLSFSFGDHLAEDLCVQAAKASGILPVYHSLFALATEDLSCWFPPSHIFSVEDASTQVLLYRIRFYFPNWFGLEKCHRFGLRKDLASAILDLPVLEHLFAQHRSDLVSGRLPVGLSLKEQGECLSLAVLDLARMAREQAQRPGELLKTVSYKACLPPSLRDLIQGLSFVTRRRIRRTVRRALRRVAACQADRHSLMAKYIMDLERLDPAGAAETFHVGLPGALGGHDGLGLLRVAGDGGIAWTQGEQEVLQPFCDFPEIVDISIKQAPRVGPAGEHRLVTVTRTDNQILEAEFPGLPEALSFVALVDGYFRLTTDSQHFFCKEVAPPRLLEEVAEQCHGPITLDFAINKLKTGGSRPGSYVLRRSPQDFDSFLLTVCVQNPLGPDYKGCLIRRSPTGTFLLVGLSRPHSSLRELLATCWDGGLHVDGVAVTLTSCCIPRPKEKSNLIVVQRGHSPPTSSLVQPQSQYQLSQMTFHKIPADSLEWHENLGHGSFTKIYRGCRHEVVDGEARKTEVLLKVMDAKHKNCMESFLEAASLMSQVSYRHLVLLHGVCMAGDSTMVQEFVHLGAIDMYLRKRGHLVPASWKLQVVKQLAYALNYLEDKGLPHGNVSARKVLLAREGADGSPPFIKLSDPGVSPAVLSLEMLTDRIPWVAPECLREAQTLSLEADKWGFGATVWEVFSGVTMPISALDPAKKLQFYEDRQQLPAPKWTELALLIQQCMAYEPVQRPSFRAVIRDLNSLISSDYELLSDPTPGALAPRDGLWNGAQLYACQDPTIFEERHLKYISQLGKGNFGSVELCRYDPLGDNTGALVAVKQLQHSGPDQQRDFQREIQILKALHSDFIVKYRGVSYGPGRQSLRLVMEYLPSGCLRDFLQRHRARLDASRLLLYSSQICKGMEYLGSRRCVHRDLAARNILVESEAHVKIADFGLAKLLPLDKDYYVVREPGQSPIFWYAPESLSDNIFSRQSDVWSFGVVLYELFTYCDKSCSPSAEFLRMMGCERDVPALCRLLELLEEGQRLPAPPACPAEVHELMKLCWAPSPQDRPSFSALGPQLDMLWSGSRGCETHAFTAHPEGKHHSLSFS

Tyk2, sequence (P29597 whole entry): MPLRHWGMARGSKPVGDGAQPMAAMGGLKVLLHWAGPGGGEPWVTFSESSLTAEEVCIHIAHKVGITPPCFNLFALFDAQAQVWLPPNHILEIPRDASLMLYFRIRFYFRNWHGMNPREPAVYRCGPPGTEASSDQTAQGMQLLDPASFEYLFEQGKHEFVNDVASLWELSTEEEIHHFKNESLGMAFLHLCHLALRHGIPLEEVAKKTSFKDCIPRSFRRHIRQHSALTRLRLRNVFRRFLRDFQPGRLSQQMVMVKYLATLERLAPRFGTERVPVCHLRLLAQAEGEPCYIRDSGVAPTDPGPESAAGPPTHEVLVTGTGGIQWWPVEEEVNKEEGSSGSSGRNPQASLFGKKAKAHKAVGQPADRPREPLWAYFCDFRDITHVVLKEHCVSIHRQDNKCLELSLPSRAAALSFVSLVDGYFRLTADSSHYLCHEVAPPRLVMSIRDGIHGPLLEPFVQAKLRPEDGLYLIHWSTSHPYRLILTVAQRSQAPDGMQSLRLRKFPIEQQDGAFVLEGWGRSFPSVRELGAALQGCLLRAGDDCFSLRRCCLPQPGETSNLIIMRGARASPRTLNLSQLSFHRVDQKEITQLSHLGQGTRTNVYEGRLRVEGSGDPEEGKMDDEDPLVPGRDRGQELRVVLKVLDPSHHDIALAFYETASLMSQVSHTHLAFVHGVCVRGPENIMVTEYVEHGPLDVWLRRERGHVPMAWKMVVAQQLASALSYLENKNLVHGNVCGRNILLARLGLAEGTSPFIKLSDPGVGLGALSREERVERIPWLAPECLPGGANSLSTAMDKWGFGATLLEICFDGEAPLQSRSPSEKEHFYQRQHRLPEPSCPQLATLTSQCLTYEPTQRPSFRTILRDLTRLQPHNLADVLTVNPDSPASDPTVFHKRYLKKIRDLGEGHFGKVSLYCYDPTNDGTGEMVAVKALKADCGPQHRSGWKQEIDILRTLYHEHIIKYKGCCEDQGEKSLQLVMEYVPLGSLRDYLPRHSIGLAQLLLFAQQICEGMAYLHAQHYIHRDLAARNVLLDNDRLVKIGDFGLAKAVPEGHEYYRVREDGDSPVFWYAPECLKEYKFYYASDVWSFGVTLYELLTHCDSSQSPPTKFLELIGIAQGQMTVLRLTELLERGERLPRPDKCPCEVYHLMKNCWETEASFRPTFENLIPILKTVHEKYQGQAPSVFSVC

Structure (SMILES): C[C@H](O)CNC[C@H]1CC[C@H](c2nnn3cnc4[nH]ccc4c23)CC1 [compound 184, (S)-1-({[trans-4-(7H-pyrrolo[3,2-e][1,2,3]triazolo[1,5-c]pyrimidin-1-yl)cyclohexyl]methyl}amino)propan-2-ol]
- IC50 (JAK2; ATP 100 μM, Table^a 154): 0.042 µM
- IC50 (JAK1; Table^a 154): 0.0035 µM
- IC50 (Tyk2; Table^a 154): 0.087 µM
- IC50 (JAK3; Table^a 154): 0.58 µM

Structure (SMILES): C[C@@H](O)CNC[C@H]1CC[C@H](c2nnn3cnc4[nH]ccc4c23)CC1 [compound 185, (R)-1-({[trans-4-(7H-pyrrolo[3,2-e][1,2,3]triazolo[1,5-c]pyrimidin-1-yl)cyclohexyl]methyl}amino)propan-2-ol]
- IC50 (JAK2; ATP 100 μM, Table^a 154): 0.051 µM
- IC50 (JAK1; Table^a 154): 0.0081 µM
- IC50 (Tyk2; Table^a 154): 0.13 µM
- IC50 (JAK3; Table^a 154): 0.32 µM

Structure (SMILES): N#C[C@H]1CCN(C[C@H]2CC[C@H](c3nnn4cnc5[nH]ccc5c34)CC2)C1 [compound 187, (S)-1-{[trans-4-(7H-pyrrolo[3,2-e][1,2,3]triazolo[1,5-c]pyrimidin-1-yl)cyclohexyl]methyl}pyrrolidine-3-carbonitrile]
- IC50 (JAK2; ATP 100 μM, Table^a 154): 0.038 µM
- IC50 (JAK1; Table^a 154): 0.0076 µM
- IC50 (Tyk2; Table^a 154): 0.36 µM
- IC50 (JAK3; Table^a 154): 0.37 µM

Structure (SMILES): CS(=O)(=O)c1ccc2c(c1)CCN2C[C@H]1CC[C@H](c2nnn3cnc4[nH]ccc4c23)CC1 [compound 189, 1-(trans-4-{[5-(methylsulfonyl)indolin-1-yl]methyl}cyclohexyl)-7H-pyrrolo[3,2-e][1,2,3]triazolo[1,5-c]pyrimidine]
- IC50 (JAK2; ATP 100 μM, Table^a 154): 0.038 µM
- IC50 (JAK1; Table^a 154): 0.011 µM
- IC50 (Tyk2; Table^a 154): 0.38 µM
- IC50 (JAK3; Table^a 154): 0.61 µM

Structure (SMILES): O=C1NCCN1CCNC[C@H]1CC[C@H](c2nnn3cnc4[nH]ccc4c23)CC1 [compound 191, 1-[2-({[trans-4-(7H-pyrrolo[3,2-e][1,2,3]triazolo[1,5-c]pyrimidin-1-yl)cyclohexyl]methyl}amino)ethyl]imidazolidin-2-one]
- IC50 (JAK2; ATP 100 μM, Table^a 154): 0.084 µM
- IC50 (JAK1; Table^a 154): 0.01 µM
- IC50 (Tyk2; Table^a 154): 0.18 µM
- IC50 (JAK3; Table^a 154): 0.92 µM

Structure (SMILES): c1nc(CCNC[C@H]2CC[C@H](c3nnn4cnc5[nH]ccc5c34)CC2)c[nH]1 [compound 192, N-{[trans-4-(7H-pyrrolo[3,2-e][1,2,3]triazolo[1,5-c]pyrimidin-1-yl)cyclohexyl]methyl}-2-(1H-imidazol-4-yl)ethanamine hydrochloride]
- IC50 (JAK2; ATP 100 μM, Table^a 154): 0.038 µM
- IC50 (JAK1; Table^a 154): 0.0039 µM
- IC50 (Tyk2; Table^a 154): 0.1 µM
- IC50 (JAK3; Table^a 154): 0.32 µM

Structure (SMILES): c1ccc(CNC[C@H]2CC[C@H](c3nnn4cnc5[nH]ccc5c34)CC2)cc1 [compound 193, 1-[trans-4-(7H-pyrrolo[3,2-e][1,2,3]triazolo[1,5-c]pyrimidin-1-yl)cyclohexyl]-N-benzylmethanamine]
- IC50 (JAK2; ATP 100 μM, Table^a 154): 0.041 µM
- IC50 (JAK1; Table^a 154): 0.0053 µM
- IC50 (Tyk2; Table^a 154): 0.0055 µM
- IC50 (JAK3; Table^a 154): 0.28 µM

Structure (SMILES): Clc1ccc(NC2CCC(c3nnn4cnc5[nH]ccc5c34)CC2)cc1 (centres unmarked) [compound 205, N-[4-(7H-Pyrrolo[3,2-e]r[1,2,3]triazolo[1,5-c]pyrimidin-1-yl)cyclohexyl]-4-chloroaniline]
- IC50 (JAK2; ATP 100 μM, Table^a 154): 0.25 µM
- IC50 (JAK1; Table^a 154): 0.026 µM
- IC50 (Tyk2; Table^a 154): 0.75 µM
- IC50 (JAK3; Table^a 154): > 1 µM

Structure (SMILES): O=C(Nc1ccc(F)cc1)[C@H]1CC[C@H](c2nnn3cnc4[nH]ccc4c23)CC1 [compound 206, trans-N-(4-Fluorophenyl)-4-(7H-pyrrolo[3,2-e][1,2,3]triazolo[1,5-c]pyrimidin-1-yl)cyclohexanecarboxamide]
- IC50 (JAK2; ATP 100 μM, Table^a 154): > 1 µM
- IC50 (JAK1; Table^a 154): 0.27 µM
- IC50 (Tyk2; Table^a 154): > 1 µM
- IC50 (JAK3; Table^a 154): > 1 µM

Structure (SMILES): O=C(NCc1ccc(F)cc1)[C@H]1CC[C@H](c2nnn3cnc4[nH]ccc4c23)CC1 [compound 207, trans-N-(4-fluorobenzyl)-4-(7H-pyrrolo[3,2-e][1,2,3]triazolo[1,5-c]pyrimidin-1-yl)cyclohexanecarboxamide]
- IC50 (JAK2; ATP 100 μM, Table^a 154): 0.055 µM
- IC50 (JAK1; Table^a 154): 0.009 µM
- IC50 (Tyk2; Table^a 154): > 1 µM
- IC50 (JAK3; Table^a 154): > 1 µM

Structure (SMILES): O=C(NCCc1ccc(F)cc1)[C@H]1CC[C@H](c2nnn3cnc4[nH]ccc4c23)CC1 [compound 208, trans-N-(4-fluorophenethyl)-4-(7H-pyrrolo[3,2-e][1,2,3]triazolo[1,5-c]pyrimidin-1-yl)cyclohexanecarboxamide]
- IC50 (JAK2; ATP 100 μM, Table^a 154): 0.033 µM
- IC50 (JAK1; Table^a 154): 0.0028 µM
- IC50 (Tyk2; Table^a 154): 0.37 µM
- IC50 (JAK3; Table^a 154): 0.36 µM

Structure (SMILES): O=C([C@H]1CC[C@H](c2nnn3cnc4[nH]ccc4c23)CC1)N1CC[C@H](F)C1 [compound 209, [trans-4-(7H-pyrrolo[3,2-e][1,2,3]triazolo[1,5-c]pyrimidin-1-yl)cyclohexyl][(S)-3-fluoropyrrolidin-1-yl]methanone]
- IC50 (JAK2; ATP 100 μM, Table^a 154): 0.42 µM
- IC50 (JAK1; Table^a 154): 0.061 µM
- IC50 (Tyk2; Table^a 154): > 1 µM
- IC50 (JAK3; Table^a 154): > 1 µM

Structure (SMILES): N#CCOc1ccc(CN2CCC(c3nnn4cnc5[nH]ccc5c34)CC2)cc1 [compound 213, 2-(4-{[4-(7H-pyrrolo[3,2-e][1,2,3]triazolo[1,5-c]pyrimidin-1-yl)piperidin-1-yl]methyl}phenoxy)acetonitrile]
- IC50 (JAK2; ATP 100 μM): 0.19 µM
- IC50 (JAK1): 0.024 µM
- IC50 (Tyk2): > 1 µM
- IC50 (JAK3): > 1 µM

Structure (SMILES): Clc1ccc(CN2CCC(c3nnn4cnc5[nH]ccc5c34)CC2)cn1 [compound 214, 1-{1-[(6-chloropyridin-3-yl)methyl]piperidin-4-yl}-7H-pyrrolo[3,2-e][1,2,3]triazolo[1,5-c]pyrimidine]
- IC50 (JAK2; ATP 100 μM): 0.013 µM
- IC50 (JAK1): 0.0026 µM
- IC50 (Tyk2): 0.29 µM
- IC50 (JAK3): 0.04 µM

Structure (SMILES): C(=C\c1ccco1)/CN1CCC(c2nnn3cnc4[nH]ccc4c23)CC1 [compound 215, (E)-1-{1-[3-(furan-2-yl)allyl]piperidin-4-yl}-7H-pyrrolo[3,2-e][1,2,3]triazolo[1,5-c]pyrimidine]
- IC50 (JAK2; ATP 100 μM): 0.25 µM
- IC50 (JAK1): 0.026 µM
- IC50 (Tyk2): > 1 µM
- IC50 (JAK3): > 1 µM

Structure (SMILES): CN1CCC(c2nnn3cnc4[nH]ccc4c23)CC1 [compound 216, 1-(1-methylpiperidin-4-yl)-7H-pyrrolo[3,2-e][1,2,3]triazolo[1,5-c]pyrimidine]
- IC50 (JAK2): > 1 µM
- IC50 (JAK1): 0.38 µM
- IC50 (Tyk2): > 1 µM
- IC50 (JAK3): > 1 µM

Structure (SMILES): Clc1n[nH]c2ccc(CN3CCC(c4nnn5cnc6[nH]ccc6c45)CC3)cc12 [compound 217, 1-{1-[(3-chloro-1H-indazol-5-yl)methyl]piperidin-4-yl}-7H-pyrrolo[3,2-e][1,2,3]triazolo[1,5-c]pyrimidine]
- IC50 (JAK2; ATP 100 μM): 0.18 µM
- IC50 (JAK1): 0.08 µM
- IC50 (Tyk2): > 1 µM
- IC50 (JAK3): 0.38 µM

Structure (SMILES): c1cnc2cc(CN3CCC(c4nnn5cnc6[nH]ccc6c45)CC3)ccc2n1 [compound 218, 1-[1-(quinoxalin-6-ylmethyl)piperidin-4-yl]-7H-pyrrolo[3,2-e][1,2,3]triazolo[1,5-c]pyrimidine]
- IC50 (JAK2; ATP 100 μM): 0.14 µM
- IC50 (JAK1): 0.028 µM
- IC50 (Tyk2): > 1 µM
- IC50 (JAK3): > 1 µM

Structure (SMILES): c1cc2c(ncn3nnc(C4CCN(Cc5cocn5)CC4)c23)[nH]1 [compound 219, 4-{[4-(7H-pyrrolo[3,2-e][1,2,3]triazolo[1,5-c]pyrimidin-1-yl)piperidin-1-yl]methyl}oxazole]
- IC50 (JAK2; ATP 100 μM): 0.081 µM
- IC50 (JAK1): 0.039 µM
- IC50 (Tyk2): 0.97 µM
- IC50 (JAK3): 0.62 µM

Structure (SMILES): FC(F)Oc1ccc(CN2CCC(c3nnn4cnc5[nH]ccc5c34)CC2)cc1 [compound 220, 1-{1-[4-(difluoromethoxy)benzyl]piperidin-4-yl}-7H-pyrrolo[3,2-e][1,2,3]triazolo[1,5-c]pyrimidine]
- IC50 (JAK2; ATP 100 μM): 0.086 µM
- IC50 (JAK1): 0.013 µM
- IC50 (Tyk2): > 1 µM
- IC50 (JAK3): 0.62 µM
